# Experimental data as given in US10961202B2, “Bis-benzimidazole compounds and methods of using the same” (THE SCRIPPS RESEARCH INSTITUTE, priority 2017, dated 2021).
# Read-outs that look alike come from different tables or passages of the source.
# Tests used:
# [1] = tested on: MBNL1 exon 5 inclusion in DM1 myotubes; assay: Myotube splicing rescue assay (MBNL1 exon 5 inclusion); assay type: cell-based, human; conditions: 48-hour incubation
# [2] = tested on: HSALR strain 20b mice; assay: DM1 mouse efficacy study: RT-PCR of MBNL1-dependent splicing targets in gastrocnemius; assay type: in vivo; conditions: sc, 7.5 mg/kg qod 5 doses, subcutaneous
# [3] = tested on: HSALR strain 20b mice; assay: as above; assay type: in vivo; conditions: sc, 3 mg/kg qod 5 doses, subcutaneous
# From the text: HSALR strain 20b mice were used as a model for myotonic dystrophy type I (DM1) experimental studies when testing the efficacy of candidate compounds. To determine the genotype of the mice, the transgene of human skeletal actin (HSA) genomic level was compared to endogenous mouse skeletal actin (MSA) by PCR. Mice with an HSA:MSA ratio of 2:1, homozygous mice were used for the study. Disease phenotype was confirmed in homozygous HSALR by assessing myotonia by pinching the quadriceps of the mouse. […] Homozygous HSALR that have been confirmed by PCR genotyping HSA:MSA ratio and are positive for pinch myotonia were selected for candidate compound efficacy studies for DM1.
# For each study, a control group of PBS injected mice was included along with mice test groups injected with the compound to be tested. For a statistical power >80%, five mice were used per group (three females and two males). As previously indicated, homozygous HSALR mice were selected aged 8-12 weeks at the beginning of the study. Littermate mice were evenly distributed across groups in the study. Each cage contained mice from a single group. Female mice from different litters were combined into one cage for a single test group. Male mice cannot be combined in cages with non-littermate mice. If any fighting occurred in cages with multiple mice, the mice with minor/superficial fight wounds were be separated and monitored. Mice with severe fight wounds were removed from the study. Mice were monitored throughout the study for weight changes over time, behavioral changes at time of injection, and any other potential health concerns that arose during the study.
# Mice were injected with approximately ˜200 μL solution subcutaneously by 28-gauge syringe. The volume administered was determined by the weight of the mouse where 10 iaL solution is administered per 1 g of the weight of the mouse. The compound was solubilized in DPBS at a concentration of […], which equated to a dose of 0.1-3.0 mg compound per kg weight of the animal (mpk). Mice were weighed once a week, and the volume of administered compound solution (or DPBS) was adjusted accordingly for correct mpk dosing. Once a compound was tested for acute toxicity in FVB wildtype mice, the compound was typically first tested at 3 mpk, injected every other day (q.o.d.) for five doses, and the mice sacrificed 24 hr after the last injection. Candidate compounds were further tested at different dose regimes to further assess the compound's efficacy in DM1 mice.
# For each mouse, blood, brain, heart, liver, kidney, tibialis anterior, gastrocnemius, and quadriceps were dissected and collected. After the mouse was euthanized, blood was collected by cardiac puncture and placed in lithium heparin tubes on ice. Plasma was separated by centrifugation and collected. Brain, heart, half of the liver, tibialis anterior, gastrocnemius, and quadriceps were flash frozen in liquid nitrogen. Half of the liver, kidneys, and subset of heart samples were fixed in 10% formalin. One of the two tibialis anterior muscles was frozen with OCT for cyro-sectioning.
# Gastrocnemius muscle was used for downstream RNA extraction RT-PCR. […] Half of one gastrocnemius was used for an RNA extraction. The gastrocnemius was homogenized in Trizol reagent and extracted following the protocol of the Zymo Direct-zol RNA Mini Prep Plus kit.
# For each RNA sample, 500 ng of RNA was used for a reverse transcription reaction to produce single-stranded cDNA. MBNL1-dependent splicing targets (Clcn1 exon 7a, Mbnl1 exon 5, Sercal exon 22, and Zasp exon 11) and MBNL1-independent splicing targets (Capzb exon 8, Itgb1 exon 17) were assessed by RT-PCR. For the alternative exons listed, forward and reverse primers were designed to amplify the alternative exon along with the flanking constitutive exons such that one primer may produce two PCR products: one PCR product including the alternative exon and one PCR product excluding the alternative exon. […]
# [4] = tested on: r(CUG)12-MBNL1 complex; assay: Inhibition of the r(CUG)12-MBNL1 complex measured by TR-FRET; assay type: biochemical; conditions: Table M; 80 nM RNA, 60 nM MBNL1-His6
# [5] = read-out: Clcn1 exon 7a splicing rescue %
# [6] = read-out: Mbnl1 exon 5 splicing rescue %
# [7] = read-out: Serca1 exon 22 splicing rescue %
# [8] = read-out: Zasp exon 11 splicing rescue %
Structure (SMILES),MBNL1 % splicing rescue at 10 μM [1],"percent splicing rescue at 7.5 mg/kg [2, 5]","percent splicing rescue at 7.5 mg/kg [2, 6]","percent splicing rescue at 7.5 mg/kg [2, 7]","percent splicing rescue at 7.5 mg/kg [2, 8]","percent splicing rescue at 3 mg/kg [3, 5]","percent splicing rescue at 3 mg/kg [3, 6]","percent splicing rescue at 3 mg/kg [3, 7]","percent splicing rescue at 3 mg/kg [3, 8]",IC50 [4],MBNL1 % splicing rescue at 1 μM ([1]; 1 μM)
"CN1CCC(COc2ccc3nc(-c4ccc(-c5nc6ccc(OCC7CCN(C)CC7)cc6[nH]5)cc4)[nH]c3c2)CC1 [Compound 198, 1,4-bis(6-((1-methylpiperidin-4-yl)methoxy)-1H-benzo[d]imidazol-2-yl)benzene]",109.8%,90.4%,94.5%,61.2%,91.5%,55.1%,49.7%,22.3%,35%,9.67 µM,
c1cc2nc(-c3ccc(-c4nc5ccc(OCCCN6CCCCC6)cc5[nH]4)cc3)[nH]c2cc1OCCCN1CCCCC1 [Compound 214],119.3%,,,,,-31.6%,-17.3%,-5.1%,-12.1%,25.2 µM,
CN(C)CCCOc1ccc2nc(-c3cnc(-c4nc5ccc(OCCCN(C)C)cc5[nH]4)cn3)[nH]c2c1 [Compound 274],65.3%,,,,,31.6%,25.2%,10.7%,29.8%,12 µM,
"CN(C)CCCOc1cc2[nH]c(-c3ccc(-c4nc5cc(F)c(OCCCN(C)C)cc5[nH]4)cc3)nc2cc1F [Compound 277, (3-[[2-(4-[6-[3-(dimethylamino)propoxy]-5-fluoro-1H-1,3-benzodiazol-2-yl]phenyl)-5-fluoro-1H-1,3-benzodiazol-6-yl]oxy]propyl)dimethylamine; 2-hydroxypropane-1,2,3-tricarboxylic acid]",51.0%,,,,,30.3%,19.9%,13.2%,24.2%,8.29 µM,
"CN(C)CCCOc1ccc2nc(-c3ccc(-c4nc5ccc(OCCCN(C)C)cc5[nH]4)c(F)c3)[nH]c2c1 [Compound 286, (3-[[2-(4-[6-[3-(dimethylamino)propoxy]-1H-1,3-benzodiazol-2-yl]-3-fluorophenyl)-1H-1,3-benzodiazol-6-yl]oxy]propyl)dimethylamine]",96.4%,,,,,65.8%,70.4%,40.4%,60%,14.2 µM,
CN(C)CCOc1cccc(-c2nc3cc(-c4ccc5[nH]c(-c6cccc(OCCN(C)C)c6)nc5c4)ccc3[nH]2)c1 [Compound 354],64.2%,,,,,-14%,-0.1%,0.1%,-0.1%,16.5 µM,66.0%
